Assay results from patent US6403554B2, “Polyunsaturated fatty acid derivatives and their use” (Ardenia Investments Ltd., priority 1998, dated 2002).
Blank lines part the entries; values can stand above or below the compound they belong to.

Experiments:
[1] = test system: antibody-forming cells (AFC) in the spleen; assay: Influence of compound on humoral immune response to sheep erythrocytes, C57B1/6 female mice (AFC in spleen, hemagglutinins); assay type: in vivo; details: for Amount of antibody-forming cells per 10^6 spleen cells / Amount of antibody-forming cells per spleen / Effect on relative amount of AFC (per 10^6 spleen cells) / Effect on total AFC amount (per spleen): 5th day; for Amount of antibody-forming cells per 10^6 spleen cells / Amount of antibody-forming cells per spleen: M ± SEM; for Effect on relative amount of AFC (per 10^6 spleen cells) / Effect on total AFC amount (per spleen) / Effect on hemagglutinin titers: vs control; for Spleen index: with SRBC i.p.
[2] = test system: antibody-forming cells (AFC) in the spleen; assay: Influence of human AFP/compound complex and compound alone on humoral immune response, C57B1/6 male mice; assay type: in vivo; details: compound alone, 5th day
Method: (§1) The influence of complexes of AFP with one of the title compounds 1-4, 1a-4a, 5-20 as well as their basic components on humoral immune response was estimated by counting the quantity of antibody-forming cells (AFC) in the mice spleen.
0.15 ml of AFP/Compound 3 complex was administered intravenously to 6 mice males of C57B1/6 line (weight 18-22 g) in the dose of […] of AFP and 45.5 μg of compound 3 per capita. Simultaneously suspension of 5·10^7 sheep erythrocytes was injected intraperitoneally (0.2 ml per capita). In the group with compound 3 mice were injected intravenously by one in the dose of 45.5 μg. Animals of group with AFP received 9 μg of AFP. Mice of control group were injected intravenously with equal volume of saline. Complex AFP/Compound 3 effect on humoral immune response was analyzed by counting the quantity of AFC in the spleen according to Cunningham (per 10^6 spleen cells and per spleen).
(§2) 0.15 ml of AFP/Compound 2a complex (1:100) was administered intravenously to 6 mice males of C57B1/6 line (weight 18-22 g) in the dose of 9 μg of AFP and 45.5 μg of compound 2a per capita. Simultaneously, a suspension of 5·10^7 sheep erythrocytes was injected intraperitoneally (0.2 ml per capita). In the group with compound 2a mice were injected intravenously by one in the dose of 45.5 μg. Animals of group with AFP received 9 μg of AFP. Mice in the control group were injected intravenously with an equal volume of saline. The effect of the AFP/Compound 2a complex on humoral immune response was analyzed by counting the quantity of AFC in the spleen according to Cunningham (per 10^6 spleen cells and per spleen).
(§3) 0.15 ml of AFP/Compound 10 complex (1:200) was administered intravenously to 6 male mice of C57B1/6 line (weight 18-22 g) in the dose of 9 μg of AFP and 91 μg of compound 10 per capita. Simultaneously, a suspension of 5·10^7 sheep erythrocytes was injected intraperitoneally (0.2 ml per capita). In the group receiving compound 10 mice were injected intravenously by one in the dose of 91 μg. Animals in the group with AFP received 9 μg of AFP. Micein the control group were injected intravenously with an equal volume of saline. The effect of the AFP/Compound 10 complex on humoral immune response was analyzed by counting the quantity of AFC in the spleen according to Cunningham (per 10^6 spleen cells and per spleen).
as §3, with “AFP/Compound 14” for “AFP/Compound 10”, “compound 14” for “compound 10”, “group with” for “group receiving”, “Animals of” for “Animals in the”, “AFP. Mice in” for “AFP. Micein”

[3] = test system: antibody-forming cells (AFC) in the spleen; assay: Influence of rat AFP/compound complex and compound alone on humoral immune response, C57B1/6 male mice; assay type: in vivo; details: compound alone, 5th day
Method: as §1
0.15 ml of AFP/Compound 7 complex (1:200) was administered intravenously to 6 male mice of C57B1/6 line (weight 18-22 g) in the dose of 9 μg of AFP and 91 μg of compound 7 per capita. Simultaneously, a suspension of 5·10^7 sheep erythrocytes was injected intraperitoneally (0.2 ml per capita). In the group with compound 7 mice were injected intravenously by one in the dose of 91 μg. Animals of group with AFP received 9 μg of AFP. Mice of control group were injected intravenously with equal volume of saline. AFP/Compound 7 complex effect on humoral immune response was analyzed by counting the quantity of AFC in the spleen according to Cunningham (per 10^6 spleen cells and per spleen).
0.15 ml of AFP/Compound 15 complex (1:200) was administered intravenously to 6 mice males of C57B1/6 line (weight 18-22 g) in the dose of 9 μg of AFP and 91 μg of compound 15 per capita. Simultaneously, a suspension of 5·10^7 sheep erythrocytes was injected intraperitoneally (0.2 ml per capita). In the group receiving compound 15, the mice were injected intravenously by one in the dose of 91 μg. Animals in the AFP-group received 9 μg of AFP. Mice in the control group were injected intravenously with an equal volume of saline. The effect of the AFP/Compound 15 complex on humoral immune response was analyzed by counting the quantity of AFC in the spleen according to Cunningham (per 10^6 spleen cells and per spleen).
as §2, with “1” for “2a”, “complex” for “complex (1:100)”, “Complex AFP/Compound 1” for “The”, “effect” for “effect of the AFP/Compound 2a complex”

endothelial cells = details: cited from earlier work
human AFP = target: T1, human AFP (Homo sapiens, UniProt P02771); assay: AFP binding: competitive substitution of [3H]arachidonic acid from the protein's binding site
T1 construct: from tissue; host or cells: human cord blood
T1 sequence (P02771 19-609): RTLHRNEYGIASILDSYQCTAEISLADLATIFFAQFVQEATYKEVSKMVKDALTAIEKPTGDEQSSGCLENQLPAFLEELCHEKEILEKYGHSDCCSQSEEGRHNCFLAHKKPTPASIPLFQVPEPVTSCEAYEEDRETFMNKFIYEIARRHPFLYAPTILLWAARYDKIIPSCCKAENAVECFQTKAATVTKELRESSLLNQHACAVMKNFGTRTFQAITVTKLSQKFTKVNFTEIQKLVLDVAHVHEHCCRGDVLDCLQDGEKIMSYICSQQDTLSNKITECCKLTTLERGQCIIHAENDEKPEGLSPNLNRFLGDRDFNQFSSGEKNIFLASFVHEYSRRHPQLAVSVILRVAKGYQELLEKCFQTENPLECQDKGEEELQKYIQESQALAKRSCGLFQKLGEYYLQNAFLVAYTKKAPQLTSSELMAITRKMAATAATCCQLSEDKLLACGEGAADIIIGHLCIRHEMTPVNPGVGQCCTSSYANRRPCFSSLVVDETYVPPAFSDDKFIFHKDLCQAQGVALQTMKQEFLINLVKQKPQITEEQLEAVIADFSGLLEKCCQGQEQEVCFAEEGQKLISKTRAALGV
Method: To tubes containing […] AFP in 1 ml 0.1 M bicarbonate buffer and 0.7 pmol [^3H]arachidonic acid and increasing amounts (5-5000 pmol) of arachidonic acid or any one of the title compounds 1-4, 1a-4a, and 5-20 were added. The tubes were incubated for 2 hr at room temperature. To separate protein-bound and free fractions of [^3H] arachidonic acid, tubes were incubated at 4° C. for 15 min with dextran covered activated carbon (0.5% suspension). The carbon was sedimented by centrifugation at 3000×g, aliquotes were added to 10 ml scintillating mixture and the vials were measured in a beta-counter.
The binding parameters of arachidonic acid and the compounds (1-4, 1a-4a, 5-16) the number of binding sites per protein molecule were calculated according to Scatchard (Scatchard O., Ann.N.Y.Acad.Sci. 51., p 660-664, 1949), and Blondeau (Blondeau J.-P., et al., Steroids, V. 32, N 5, P. 563-575, 1978).

SMILES: CC1=C(/C=C/C(C)=C/C=C/C(C)=C\C(=O)N[C@@H](COP(=O)(O)O)C(=O)O)C(C)(C)CCC1 (stereo in doubt) [Compound 2a, N-(13-cis-Retinoyl)-O-phospho-L-serine]
Immunogenic activity ([1]; 45.5 μg/mouse): no immunogenic activity
Amount of antibody-forming cells per 10^6 spleen cells ([1]; 45.5 μg/mouse, i.v.): 264.5±19.9 cells per 10^6 spleen cells
Amount of antibody-forming cells per spleen ([1]; 45.5 μg/mouse, i.v.): 34.0±2.6 × 10^3
Effect on relative amount of AFC (per 10^6 spleen cells) ([1]; 45.5 μg/mouse, i.v.): −12.8 p > 0.05%
Effect on total AFC amount (per spleen) ([1]; 45.5 μg/mouse, i.v.): −15.0 p > 0.05%
Effect on hemagglutinin titers ([1]; 45.5 μg/mouse, i.v.): −7.7 p > 0.05%
Spleen index ([1]; 45.5 μg/mouse, i.v.): 6.4 ± 0.2 10^−3
immunostimulating effect in vivo in micelle form ([1]; 91 μg/mouse): display immunostimulating effect in vivo
Amount of antibody-forming cells per 10^6 spleen cells ([1]; 91 μg/mouse, i.v.): 585.6±51.6 cells per 10^6 spleen cells
Amount of antibody-forming cells per spleen ([1]; 91 μg/mouse, i.v.): 59.4±5.2 × 10^3
Effect on hemagglutinin titers ([1]; 91 μg/mouse, i.v.): −3.8 p > 0.05%
Spleen index ([1]; 91 μg/mouse, i.v.): 6.5 ± 0.2 10^−3
Amount of antibody-forming cells per 10^6 spleen cells ([1]; 136.5 μg/mouse, i.v.): 639.8±54.6 cells per 10^6 spleen cells
Amount of antibody-forming cells per spleen ([1]; 136.5 μg/mouse, i.v.): 68.3±6.1 × 10^3
Effect on hemagglutinin titers ([1]; 136.5 μg/mouse, i.v.): +5.1 p > 0.05%
Spleen index ([1]; 136.5 μg/mouse, i.v.): 7.4 ± 0.4 10^−3
immunostimulating action ([1]; 91 and 136.5 μg/mouse): marked immunostimulating action
relative amount of AFC ([2]; 45.5 μg/mouse i.v.): 264.5±19.9 cells per 10^6 spleen cells
total AFC amount ([2]; 45.5 μg/mouse i.v.): 34.0±2.6 × 10^3

SMILES: CC1=C(/C=C/C(C)=C/C=C/C(C)=C/C(=O)NCCOP(=O)(O)O)C(C)(C)CCC1 [Compound 1, N-(all-trans-Retinoyl)-O-phospho-2-aminoethanol]
relative amount of AFC ([3]; 45.5 μg/mouse i.v.): 413.1±31.5 cells per 10^6 spleen cells
total AFC amount ([3]; 45.5 μg/mouse i.v.): 38.4±3.7 × 10^3

SMILES: CCCCC/C=C\C/C=C\C/C=C\C/C=C\CCCC(=O)N[C@H](C(=O)O)[C@@H](C)OP(=O)(O)O [Compound 7, N-(cis-5,8,11,14-eicosatetraenoyl)-O-phospho-L-threonine]
relative amount of AFC ([3]; 91 μg/mouse i.v.): 574.9±39.6 cells per 10^6 spleen cells
total AFC amount ([3]; 91 μg/mouse i.v.): 60.4±5.4 × 10^3

SMILES: CC/C=C\C/C=C\C/C=C\C/C=C\C/C=C\C/C=C\CCC(=O)N[C@@H](COP(=O)(O)O)C(=O)O [Compound 10, N-(cis-4,7,10,13,16,19-docosahexaenoyl)-O-phospho-L-serine]
Amount of antibody-forming cells per 10^6 spleen cells ([1]; 45.5 μg/mouse, i.v.): 304.9±46.6 cells per 10^6 spleen cells
Amount of antibody-forming cells per spleen ([1]; 45.5 μg/mouse, i.v.): 30.2±5.7 × 10^3
Effect on relative amount of AFC (per 10^6 spleen cells) ([1]; 45.5 μg/mouse, i.v.): +11.6 p > 0.05%
Effect on total AFC amount (per spleen) ([1]; 45.5 μg/mouse, i.v.): −3.5 p > 0.05%
Effect on hemagglutinin titers ([1]; 45.5 μg/mouse, i.v.): +11.4 p > 005%
Spleen index ([1]; 45.5 μg/mouse, i.v.): 6.9 ± 0.2 10^−3
Amount of antibody-forming cells per 10^6 spleen cells ([1]; 91 μg/mouse, i.v.): 326.2±65.4 cells per 10^6 spleen cells
Amount of antibody-forming cells per spleen ([1]; 91 μg/mouse, i.v.): 34.7±8.5 × 10^3
Effect on relative amount of AFC (per 10^6 spleen cells) ([1]; 91 μg/mouse, i.v.): +19.4 p > 0.05%
Effect on total AFC amount (per spleen) ([1]; 91 μg/mouse, i.v.): +10.9 p > 0.05%
Effect on hemagglutinin titers ([1]; 91 μg/mouse, i.v.): +11.4 p > 005%
Spleen index ([1]; 91 μg/mouse, i.v.): 6.6 ± 0.4 10^−3
Amount of antibody-forming cells per 10^6 spleen cells ([1]; 136.5 μg/mouse, i.v.): 651.6±48.2 cells per 10^6 spleen cells
Amount of antibody-forming cells per spleen ([1]; 136.5 μg/mouse, i.v.): 81.1±5.8 × 10^3
Amount of hemagglutinins ([1]; 136.5 μg/mouse, i.v., serum): 8.5±0.4 Log2 T
Spleen index ([1]; 136.5 μg/mouse, i.v.): 6.7 ± 0.2 10^−3
Immunogenic activity ([1]; 45.5 and 91 μg/mouse): no immunogenic activity
relative amount of AFC ([2]; 91 μg/mouse i.v.): 326.2±65.4 cells per 10^6 spleen cells
total AFC amount ([2]; 91 μg/mouse i.v.): 34.7±8.5 × 10^3

SMILES: CC/C=C\C/C=C\C/C=C\C/C=C\C/C=C\CCCC(=O)N[C@@H](COP(=O)(O)O)C(=O)O [Compound 14, N-(cis-5,8,11,14,17-eicosapentaenoyl)-O-phospho-L-serine]
Amount of antibody-forming cells per 10^6 spleen cells ([1]; 45.5 μg/mouse, i.v.): 554.6±52.0 cells per 10^6 spleen cells
Amount of antibody-forming cells per spleen ([1]; 45.5 μg/mouse, i.v.): 70.8±10.8 × 10^3
Effect on relative amount of AFC (per 10^6 spleen cells) ([1]; 45.5 μg/mouse, i.v.): −10.9 p > 0.05%
Effect on total AFC amount (per spleen) ([1]; 45.5 μg/mouse, i.v.): −1.5 p > 0.05%
Effect on hemagglutinin titers ([1]; 45.5 μg/mouse, i.v.): −9,7 p > 0.05%
Spleen index ([1]; 45.5 μg/mouse, i.v.): 6.5 ± 0.2 10^−3
Amount of antibody-forming cells per 10^6 spleen cells ([1]; 91 μg/mouse, i.v.): 645.8±64.4 cells per 10^6 spleen cells
Amount of antibody-forming cells per spleen ([1]; 91 μg/mouse, i.v.): 80.8±12.7 × 10^3
Effect on relative amount of AFC (per 10^6 spleen cells) ([1]; 91 μg/mouse, i.v.): +3.8 p > 0.05%
Effect on total AFC amount (per spleen) ([1]; 91 μg/mouse, i.v.): +12.4 p > 0.05%
Effect on hemagglutinin titers ([1]; 91 μg/mouse, i.v.): −2,8 p > 0.05%
Spleen index ([1]; 91 μg/mouse, i.v.): 6.2 ± 0.2 10^−3
immunostimulating action ([1]; 136.5 μg/mouse): marked immunostimulating action
Amount of antibody-forming cells per 10^6 spleen cells ([1]; 136.5 μg/mouse, i.v.): 946.1±41.9 cells per 10^6 spleen cells
Amount of antibody-forming cells per spleen ([1]; 136.5 μg/mouse, i.v.): 108.6±10.8 × 10^3
Effect on hemagglutinin titers ([1]; 136.5 μg/mouse, i.v.): 0%
Spleen index ([1]; 136.5 μg/mouse, i.v.): 6.5 ± 0.3 10^−3
Immunogenic activity ([1]; 45.5 and 91 μg/mouse): no immunogenic activity
relative amount of AFC ([2]; 91 μg/mouse i.v.): 645.8±64.4 cells per 10^6 spleen cells
total AFC amount ([2]; 91 μg/mouse i.v.): 80.8±12.7 × 10^3

SMILES: CC/C=C\C/C=C\C/C=C\C/C=C\C/C=C\CCCC(=O)N[C@H](C(=O)O)[C@@H](C)OP(=O)(O)O [Compound 15, N-(cis-5,8,11,14,17-eicosapentaenoyl)-O-phospho-L-threonine]
relative amount of AFC ([3]; 91 μg/mouse i.v.): 594.7±41.4 cells per 10^6 spleen cells
total AFC amount ([3]; 91 μg/mouse i.v.): 70.8±8.2 × 10^3

SMILES: CCCCCCCC/C=C\CCCCCCCCCCCC(N)=O [Erucamide, 13-docosenamide]
inflammatory effects (endothelial cells): does not promote proliferation of endothelial cells or induce inflammatory effects
proliferation of endothelial cells (endothelial cells): does not promote proliferation of endothelial cells

Kd (human AFP): 16.7 nM
n (number of binding sites per protein molecule) (human AFP; three independent determinations, Scatchard): > 1.2
SMILES: CCCCC/C=C\C/C=C\C/C=C\C/C=C\CCCC(=O)O [arachidonic acid]
